# Test results taken from a melting point compilation (Tetko et al.; mined from patent text by program, amines drawn as free bases though some values may be those of a salt).
row,melting point,Compound
1,190 to 193 °C,COc1ccc(-c2cc(C(=O)O)n(C)n2)cc1
2,215 to 220 °C,CCOC(=O)Cn1c2cccccc-2c(C(N)=O)c1=O
3,124 to 128 °C,O=C(c1ccc2c(c1)sc(=O)n2CCOc1ccc(CC(OCC(F)(F)F)C(=O)O)cc1)C1CC1 (stereo not drawn)
4,134 to 136 °C,OCC1c2cc(Cl)ccc2Oc2ccc(Cl)cc21
5,155 to 157 °C,CN(C)C=Cc1ncc([N+](=O)[O-])n1CCO
6,139 to 140 °C,CCCC(CCC)Nc1cc(C(=O)OC)ccc1N1C(=O)CCC1(CO)CO
7,134 °C,ON=C(Cc1cnccn1)c1ccc(Cl)cc1
8,217 to 222 °C,CCOC(=O)c1c(C)nc2c(cnn2CCC(C)CC)c1N (stereo not drawn)
9,71 to 73 °C,Cc1ccccc1-c1ccc(Br)cc1C=O
10,131 to 140 °C,C=CCNc1ccc(N(CC=C)CC=C)cc1[N+](=O)[O-]
11,235 to 236 °C,Cc1c(CN2CCc3[nH]c4ccccc4c3C2=O)ncn1C(c1ccccc1)(c1ccccc1)c1ccccc1
12,90 to 92 °C,C=COCCN1C(=O)N(CN2C(=O)N(CCOC=C)C(=O)C2(C)C)C(C)(C)C1=O
13,105 to 106 °C,Cc1ccc(-c2ccccc2C(=O)NC(C)(C)C)cc1
14,201 to 202 °C,O=C1C2CCCC(C(=O)N2Cc2ccccc2)N1Cc1ccccc1
15,150 to 151 °C,COc1c(CNS(=O)(=O)c2ccc(C)cc2)ccc2c1OCO2
16,202 to 203 °C,COC(=O)COc1ccc2cc3c(c(-c4ccc(OC)cc4)c2c1)CNC3=O
17,213 to 214 °C,NC(=O)C(=O)c1cccc(Cl)c1Cl
18,109 to 112 °C,N#Cc1ccc(NC(=O)C(=O)N2CCC(Cc3ccccc3)CC2)cc1
19,92 to 93 °C,CC(=O)OCc1nc(C(C)C)c(Sc2cc(Cl)cc(Cl)c2)n1C
20,108 to 109 °C,NCc1ccc(CC(=O)Nc2cccc(C(=O)NCCC(=O)O)c2)cc1
21,183 to 184 °C,O=C(O)Cc1cccc(Oc2cccc(-c3nnc(Nc4ccc(Cl)c(Cl)c4)s3)c2)c1
22,100 to 101 °C,CCCN(CC)C(C)CN1CCc2c(c(=O)oc3cc(OC)ccc23)C1 (stereo not drawn)
23,166 to 167 °C,N#Cc1ccc(COC2COc3nc([N+](=O)[O-])cn3C2)cc1 (stereo not drawn)
24,216 to 218 °C,COc1cc2c(Nc3ccc(Cl)cc3F)ncnc2cc1OCCCn1ccccc1=O

row,melting point,Compound
1,> 250 °C,O=c1[nH]c2cc(Cl)cc(OCCNCc3ccsc3)c2[nH]1
2,138 to 140 °C,Cc1c(Br)c2cnnc(Cl)c2n1Cc1ccccc1
3,183 to 185 °C,CS(=O)(=O)c1cc(Cl)ccc1C(=O)c1cnoc1C1CC1
4,97 to 100 °C,CCN1CC(=O)N(CC)c2cc(Nc3ncc(Cl)c(Nc4ccc(OC)cc4-n4cccn4)n3)c(OC)cc2C1
5,230 to 231 °C,CC(=O)C1=C(C)CC2C3CCC4CC(O)CCC4(C)C3C(=O)CC12C (stereo not drawn)
6,186 °C,CCS(=O)(=O)Cc1ccc(Oc2ccc(NC(C)=O)cc2)cc1
7,140 to 141 °C,COC(=O)c1ccc(NC(C)=O)c(I)c1
8,50 to 52 °C,CCCCCCCCCCCCCCCCCCOc1cccc(C(=O)C(=O)OC)c1
9,88 to 93 °C,COc1ccc(C(=O)N2CCC(N3C(=O)Cc4ccccc43)CC2)c(OC)c1
10,113 to 115 °C,CN(C)C1CC=C(c2c[nH]c3ccc(NC(=N)c4cccs4)cc23)CC1 (stereo not drawn)
11,174 to 175 °C,O=C(Nc1cc(C(=O)O)cc(-c2ccccc2)c1)OCc1cc2cc(-c3ccccc3)ccc2o1
12,176 to 177 °C,O=C(O)C(=O)c1ccc(OCCOc2cc3ccccc3cc2OCCOc2ccccc2)cc1
13,196 to 197 °C,CCOC(=O)c1c(CSc2ccccc2)n(C)c2cc(Br)c(O)cc12
14,106 to 108 °C,CCC(CO)NCC(O)COc1ccccc1C#N (stereo not drawn)
15,199 to 201 °C,COc1cc(Nc2c(C#N)cnc3cc(F)ccc23)c(Cl)cc1Cl
16,187 to 188 °C,CCc1c(C#N)c(-c2ccc(C#N)cc2)c(C)n1Cc1cnc(Cl)c(COC(=O)CCC(=O)O)c1
17,240 to 244 °C,Cc1[nH][nH]c(=O)c1Cc1ccc2ccccc2c1
18,64 to 65 °C,O=C1CC2(CC=CC2)CC(=O)O1
19,137 to 140 °C,COC(=O)C(=C(/C)c1cc(OC)cc(OC)c1)/C(=C\c1cc(OC)cc(OC)c1)C(=O)O
20,108 to 110 °C,CC1=CC(OC(=O)c2ccc([N+](=O)[O-])cc2Cl)C(O)C(C)(C)CC1=O (stereo not drawn)
21,106 °C,CCOC(=O)c1cc(CC)sc1Nc1cc(F)cc(F)c1N
22,121 to 123 °C,Cc1nc2ccccc2n1-c1ccccn1
23,78 °C,COC(=O)c1scc(Cl)c1O
24,162 to 163 °C,CCOC(=O)COc1ccc(C(=O)Nc2ccccc2S(=O)(=O)c2ccccc2-c2nnn[nH]2)cc1

row,melting point,Compound
1,153 °C,N=C1SCCN1c1ccc(C(F)(F)F)cc1[N+](=O)[O-]
2,129 to 131 °C,CCOC(=O)c1nnc(-c2ccc(S(C)=O)cc2)o1 (stereo not drawn)
3,267 °C,Cc1nc2c(C(F)(F)F)cccc2c(O)c1C(=O)Nc1nccs1
4,171 to 172 °C,COCCOc1cc(/C=C/C(=O)O)n(Cc2ccc(Cl)cc2Cl)n1
5,117 to 118 °C,Clc1cccc(Oc2ccc3[nH]ccc3c2)n1
6,190 to 192 °C,Cc1cc(Cl)cc2c1OC(C)(C)C(/C=C/C=C/C=C/C(=O)O)=C2
7,153 to 156 °C,CCC12CCC3=C(CCc4cc(O)ccc43)C1=CCC2=O (stereo not drawn)
8,275 to 276 °C,CC(=O)Nc1ccc2c(c1)Cc1c(-c3ccccc3)n[nH]c1-2
9,115 to 118 °C,Cc1c(-c2ccccc2)oc2c(S)cccc2c1=O
10,182 °C,CCOC(=O)C(=NOC(C)C)c1csc(NC(c2ccccc2)(c2ccccc2)c2ccccc2)n1
11,99.9 to 105 °C,CCCCCN(CCC12CC3CC(CC(C3)C1)C2)C(=O)NCCCc1cccnc1
12,169 to 170 °C,CNc1ccccc1C(=O)n1nc(O)c2cc(N)ccc21
13,248 to 250 °C,CC(C)(C)C(=O)c1oc(N)nc1C(C)(C)C
14,221 to 222 °C,CC1NC(=O)NN=C1c1ccc(Cl)cc1 (stereo not drawn)
15,108 to 110 °C,CCOc1ccc(S(=O)(=O)Cl)cc1C(=O)O
16,89 to 91 °C,CCOC(=O)CNc1cc(Cl)nc(Cl)n1
17,247 to 248 °C,CC[C@H](C)[C@H](NC(C)=O)C(=O)N[C@H](C(=O)N[C@@H](CC1CCCCC1)[C@@H](O)[C@@H](O)CC(C)C)[C@@H](C)CC
18,145 to 147 °C,COc1ccc(N2CCN(c3c(C)c(C)c4c(c3C)C(O)(c3ccc(C)cc3)C(C)(C)O4)CC2)cc1 (stereo not drawn)
19,194 to 199 °C,c1ccc(C2=NNC(c3ccccc3)C2)cc1 (stereo not drawn)
20,133 to 134 °C,CC12CCC(=O)C=C1CCC1C2=CCC2(C)C(=C(Cl)C(Cl)S(=O)c3ccccc3)CCC12 (stereo not drawn)
21,174 to 175 °C,Cc1noc(-c2ccc(F)cc2)c1-c1ccc(S(N)(=O)=O)cc1
22,138 to 139 °C,CSc1ccc(Br)cc1C(=O)Cn1cccc1
23,179 to 182 °C,Cc1cc(N2N=C(c3ccc([N+](=O)[O-])cc3)c3cc4c(cc3CC2C)OCO4)on1 (stereo not drawn)

row,Compound,melting point
1,CCc1cccc2c1N(CC(=O)N1CC3CCC(CC3)C1)C(=O)C(NC(=O)Nc1cccc(-c3nnn[nH]3)c1)N=C2c1ccccc1F (stereo not drawn),226 to 232 °C
2,CN1CC(CN=[N+]=[N-])CC2c3cccc4c3c(cn4C)CC21 (stereo not drawn),168 to 169 °C
